We go through one compound from ChEMBL document CHEMBL2177037, “10'-Fluorovinblastine and 10'-Fluorovincristine: Synthesis of a Key Series of Modified Vinca Alkaloids” (ACS Med Chem Lett, 2011).

For assay [1], the system named is HCT-116. Description: Ratio of vinblastin IC50 to compound IC50 for human HCT116 cells. It counts as functional.
Assay [2] relates to HCT-116/VM46. Kind of assay: Ratio of vinblastin IC50 to compound IC50 for human vinblastin-resistant HCT116/VM46 cells. It counts as functional.
In assay [3] the test system is L1210. Kind of assay: Ratio of vinblastin IC50 to compound IC50 for mouse L1210 cells. It counts as functional.
Assay [4] concerns HCT-116/VM46. Kind of assay: Antitumor activity against human HCT116/VM46 cells xenografted in mouse assessed as mouse survival at 0.01 to 0.5 mg/kg, ip after 110 days. The assay is classed as functional, organism-based.
The subject of assay [5] is L1210. Description: Cytotoxicity against mouse L1210 cells. It counts as functional, cell-based.
The subject of assay [6] is HCT-116/VM46. Kind of assay: Cytotoxicity against human vinblastin-resistant HCT116/VM46 cells. It counts as functional, cell-based.
Assay [7] deals with HCT-116. Kind of assay: Cytotoxicity against human HCT116 cells. It counts as functional, cell-based.

The structures appear in SMILES notation. Calls of active or inactive are those of the source. No cut-off for these calls is given here.

In the case of `CC[C@]1(O)C[C@H]2CN(CCc3c([nH]c4ccc(F)cc34)[C@@](C(=O)OC)(c3cc4c(cc3OC)N(C)[C@H]3[C@@](O)(C(=O)OC)[C@H](OC(C)=O)[C@]5(CC)C=CCN6CC[C@]43[C@@H]65)C2)C1`, the “Ratio IC50” value in the assay on HCT-116 [1], with HCT-116/VM46 [2] and with L1210 [3] was 8 each time. The outcome in the assay on HCT-116/VM46 [4] was Active. In addition, the values for the half-inhibitory concentration (IC50) in the assay on L1210 [5], in the assay with HCT-116/VM46 [6] and in the assay on HCT-116 [7] were 0.7 nM, 80 nM and 0.8 nM, respectively.
